# Results taken from patent US20240400555A1 (Initial Therapeutics, Inc., priority 2023, published 2024).
# pIC50: −log10 of the molar value.
# Tested on: MV-4-11 cells
# Test: Cell Viability Assay in MV-4-11 Cells
# Assay type: cell-based
# Conditions: Homo sapiens, MV4-11, 72 h, MV-4-11 cells, 72 h, Cell-Titer Glo; read-out: IC50
# How it was run: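 MV-4-11 cells at 7,000/well in IMDM with 10% FBS, exposed to compound for 72 h. Viability by CellTiter-Glo luminescence, normalized to DMSO as 100%, fitted with a four-parameter curve.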
row,pIC50,Compound
1,6.74,"Cc1nnc(-c2ccc(C(=O)N(c3nccc4scc(Cl)c34)[C@@H]3CCCNC3)c(F)c2)s1 [Example 653, N-(3-chlorothieno[3,2-c] 690yridine-4-yl)-2-fluoro-4-(5-methyl-1,3,4-thiadiazol-2-yl)-N-[(3R)-3-piperidyl] benzamide]"
2,7.70,"Cc1cccc2ccnc(N(C(=O)c3ccc(Nc4nccc(-c5ccc6[nH]ncc6c5)n4)cc3F)[C@@H]3CCCNC3)c12 [Example 932, (R)-4-((4-(1H-indazol-5-yl)pyrimidin-2-yl)amino)-2-fluoro-N-(8-methylisoquinolin-1-yl)-N-(piperidin-3-yl)benzamide]"
3,6.44,"O=C(c1ccc(-n2nnc3cccnc32)cc1F)N(c1nccc2sc(-c3cccnc3)cc12)[C@@H]1CCCNC1 [Example 364, 2-fluoro-N-[(3R)-3-piperidyl]-N-[2-(3-pyridyl)thieno[3,2-c]pyridin-4-yl]-4-(triazolo[4,5-b]pyridin-3-yl)benzamide]"
4,7.24,"Cc1cc(-n2nnc3cccnc32)ccc1C(=O)N(c1nccc2cccc(C)c12)[C@@H]1CCCNC1 [Example 306, (R)-4-(3H-[1,2,3]triazolo[4,5-b]pyridin-3-yl)-2-methyl-N-(8-methylisoquinolin-1-yl)-N-(piperidin-3-yl)benzamide]"
5,6.92,"Cc1cccc2ccnc(N(C(=O)c3ccc(Nc4nccc(CN5CCN(C)CC5)n4)cc3F)[C@@H]3CCCNC3)c12 [Example 934, (R)-2-fluoro-N-(8-methylisoquinolin-1-yl)-4-((4-((4-methylpiperazin-1-yl)methyl)pyrimidin-2-yl)amino)-N-(piperidin-3-yl)benzamide]"
6,7.28,"COCCn1cc(-c2ccc(C(=O)N(c3nccc4cc(Cl)cc(C)c34)[C@@H]3CCCNC3)cn2)nn1 [Example 921, N-(6-chloro-8-methyl-1-isoquinolyl)-6-[1-(2-methoxyethyl)triazol-4-yl]-N-[(3R)-3-piperidyl]pyridine-3-carboxamide]"
7,6.66,"Cn1cc(-c2ccc(C(=O)N(c3nccc4cc(-c5ccc(S(C)(=O)=O)cc5)ccc34)[C@@H]3CCCNC3)c(F)c2)nn1 [Example 582, (R)-2-fluoro-4-(1-methyl-1H-1,2,3-triazol-4-yl)-N-(6-(4-(methylsulfonyl)phenyl)isoquinolin-1-yl)-N-(piperidin-3-yl)benzamide]"
8,6.62,"Cc1cccc2ccnc(N(C(=O)c3ccc(-c4nn(C)nc4Br)cc3F)[C@@H]3CCCNC3)c12 [Example 390, 4-(5-bromo-2-methyl-triazol-4-yl)-2-fluoro-N-(8-methyl-1-isoquinolyl)-N-[(3R)-3-piperidyl] benzamide]"
9,5.70,"Cc1cccc2ccnc(N(C(=O)N3CCCC(CCC(=O)Nc4ccc5[nH]ncc5c4)C3)[C@@H]3CCCNC3)c12 (stereo partly drawn) [Example 498, 3-(3-((1H-indazol-5-yl)amino)-3-oxopropyl)-N-(8-methylisoquinolin-1-yl)-N—((R)-piperidin-3-yl)piperidine-1-carboxamide]"
10,6.89,"COC(=O)[C@H]1CCCN1c1ccnc(Nc2ccc(C(=O)N(c3nccc4cccc(C)c34)[C@@H]3CCCNC3)c(F)c2)n1 [Example 965, methyl (2-((3-fluoro-4-((8-methylisoquinolin-1-yl)((R)-piperidin-3-yl)carbamoyl)phenyl)amino)pyrimidin-4-yl)-D-prolinate]"
11,6.04,"Cc1nnc(-c2ccc(C(=O)N(c3nccc4sc(-c5ccc(C(N)=O)cc5)cc34)[C@@H]3CCCNC3)c(F)c2)s1 [Example 827, N-[2-(4-carbamoylphenyl)thieno[3,2-c]pyridin-4-yl]-2-fluoro-4-(5-methyl-1,3,4-thiadiazol-2-yl)-N-[(3R)-3-piperidyl]benzamide]"
12,6.77,"Cc1nnc(-c2ccc(C(=O)N(c3nccc4cc(F)cc(C)c34)[C@@H]3CCCNC3)cn2)o1 [Example 918, N-(6-fluoro-8-methyl-1-isoquinolyl)-6-(5-methyl-1,3,4-oxadiazol-2-yl)-N-[(3R)-3-piperidyl]pyridine-3-carboxamide]"
13,6.51,"Cn1cc(-c2ccc(C(=O)N(c3nccc4cccc(/C=C/c5cccnc5)c34)[C@@H]3CCCNC3)cc2)nn1 [Example 349, 4-(1-methyltriazol-4-yl)-N-[(3R)-3-piperidyl]-N-[8-[(E)-2-(3-pyridyl)vinyl]-1-isoquinolyl]benzamide]"
14,< 5.00,"Cn1cc(-c2ccc(C(=O)N(c3nccc4cccc(C=CCO)c34)[C@@H]3CCCNC3)cc2)nn1 (stereo in doubt) [Example 338, (R,Z)—N-(8-(3-hydroxyprop-1-en-1-yl)isoquinolin-1-yl)-4-(1-methyl-1H-1,2,3-triazol-4-yl)-N-(piperidin-3-yl)benzamide]"
15,6.57,"CCn1cc(-c2cc3c(N(C(=O)c4ccc(-n5nnc6cccnc65)cc4F)[C@@H]4CCCNC4)nccc3s2)cn1 [Example 436, N-[2-(1-ethylpyrazol-4-yl)thieno[3,2-c]pyridin-4-yl]-2-fluoro-N-[(3R)-3-piperidyl]-4-(triazolo[4,5-b]pyridin-3-yl)benzamide]"
16,6.32,"Cc1nnc(-c2ccc(C(=O)N(c3nccc4c(Cl)ccc(C)c34)[C@@H]3CCCNC3)nc2)s1 [Example 857, N-(5-chloro-8-methyl-1-isoquinolyl)-5-(5-methyl-1,3,4-thiadiazol-2-yl)-N-[(3R)-3-piperidyl]pyridine-2-carboxamide]"

row,pIC50,Compound
1,6.52,"Cc1cccc2ccnc(N(C(=O)c3ccc(Nc4ncncn4)cc3F)[C@@H]3CCCNC3)c12 [Example 473, (R)-4-((1,3,5-triazin-2-yl)amino)-2-fluoro-N-(8-methylisoquinolin-1-yl)-N-(piperidin-3-yl)benzamide]"
2,5.82,"Cc1nsc(-c2ccc(C(=O)N(c3nccc4cc(F)cc(C)c34)[C@@H]3CCCNC3)cc2)n1 [Example 774, (R)—N-(6-fluoro-8-methylisoquinolin-1-yl)-4-(3-methyl-1,2,4-thiadiazol-5-yl)-N-(piperidin-3-yl)benzamide]"
3,6.77,"CCc1nnc(-c2ccc(C(=O)N(c3nccc4scc(C)c34)[C@@H]3CCCNC3)nc2)s1 [Example 670, (R)-5-(5-ethyl-1,3,4-thiadiazol-2-yl)-N-(3-methylthieno[3,2-c]pyridin-4-yl)-N-(piperidin-3-yl)picolinamide]"
4,6.89,"COc1cc(C)c2c(N(C(=O)c3ccc(-c4nc(C)no4)cc3)[C@@H]3CCCNC3)nccc2c1 [Example 914, N-(6-methoxy-8-methyl-1-isoquinolyl)-4-(3-methyl-1,2,4-oxadiazol-5-yl)-N-[(3R)-3-piperidyl] benzamide]"
5,6.80,"O=C(c1ccc(-n2nnc3cccnc32)cc1F)N(c1nccc2sc(-c3ccc(CO)s3)cc12)[C@@H]1CCCNC1 [Example 426, 2-fluoro-N-[2-[5-(hydroxymethyl)-2-thienyl]thieno [3,2-c]pyridin-4-yl]-N-[(3R)-3-piperidyl]-4-(triazolo [4,5-b]pyridin-3-yl) benzamide]"
6,6.74,"O=C(c1ccc(-n2nnc3cccnc32)cc1F)N(c1nccc2sc(-c3cscn3)cc12)[C@@H]1CCCNC1 [Example 416, 2-fluoro-N-[(3R)-3-piperidyl]-N-(2-thiazol-4-ylthieno[3,2-c]pyridin-4-yl)-4-(triazolo[4,5-b]pyridin-3-yl)benzamide]"
7,6.57,"CC(O)c1ccc(-c2cc3c(N(C(=O)c4ccc(-n5nnc6cccnc65)cc4F)[C@@H]4CCCNC4)nccc3s2)cc1 (stereo partly drawn) [Example 600, 4-(3H-[1,2,3]triazolo[4,5-b]pyridin-3-yl)-2-fluoro-N-(2-(4-(1-hydroxyethyl)phenyl)thieno[3,2-c]pyridin-4-yl)-N—((R)-piperidin-3-yl)benzamide]"
8,5.89,"O=C(NCCO)c1ccc2c(N(C(=O)c3ccc(-n4nnc5cccnc54)cc3F)[C@@H]3CCCNC3)nccc2c1 [Example 371, (R)-1-(4-(3H-[1,2,3]triazolo[4,5-b]pyridin-3-yl)-2-fluoro-N-(piperidin-3-yl)benzamido)-N-(2-hydroxyethyl) isoquinoline-6-carboxamide]"
9,< 5.23,"Cc1cc(F)cc2ccnc(N(C(=O)c3ccc(-c4cn(C)nn4)cc3F)[C@H]3CCCNC3)c12 [Example 620, 2-fluoro-N-(6-fluoro-8-methyl-1-isoquinolyl)-4-(1-methyltriazol-4-yl)-N-[(3S)-3-piperidyl]benzamide]"
10,7.34,"Cc1cccc2ccnc(N(C(=O)c3ccc(Nc4nccc(N5CCCOCC5)n4)cc3F)[C@@H]3CCCNC3)c12 [Example 944, (R)-4-(4-(1,4-oxazepan-4-yl)pyrimidin-2-ylamino)-2-fluoro-N-(8-methylisoquinolin-1-yl)-N-(piperidin-3-yl)benzamide]"
11,< 5.00,"Cc1cccc2ccnc(N(C(=O)c3ccc(C#N)cc3-c3ccn[nH]3)[C@@H]3CCCNC3)c12 [Example 333, 4-cyano-N-(8-methyl-1-isoquinolyl)-N-[(3R)-3-piperidyl]-2-(1H-pyrazol-5-yl)benzamide]"
12,7.10,"CCOCc1nnc(-c2ccc(C(=O)N(c3nccc4cc(F)cc(C)c34)[C@@H]3CCCNC3)c(F)c2)s1 [Example 854, 4-[5-(ethoxymethyl)-1,3,4-thiadiazol-2-yl]-2-fluoro-N-(6-fluoro-8-methyl-1-isoquinolyl)-N-[(3R)-3-piperidyl]benzamide]"
13,6.46,"C=C(C)c1ccc2c(N(C(=O)c3ccc(-c4cn(C)nn4)cc3F)[C@@H]3CCCNC3)nccc2c1 [Example 692, (R)-2-fluoro-4-(1-methyl-1H-1,2,3-triazol-4-yl)-N-(piperidin-3-yl)-N-(6-(prop-1-en-2-yl)isoquinolin-1-yl)benzamide]"
14,6.37,"Cc1cc(F)cc2ccnc(N(C(=O)c3ccc(-c4nnn(C)c4C)cc3)[C@@H]3CCCNC3)c12 [Example 770, (R)-4-(1,5-dimethyl-1H-1,2,3-triazol-4-yl)-N-(6-fluoro-8-methylisoquinolin-1-yl)-N-(piperidin-3-yl)benzamide]"
15,6.68,"Cc1cccc2ccnc(N(C(=O)c3ccc(C#N)c(-c4ccc(-c5cccnc5)cc4)c3)[C@@H]3CCCNC3)c12 [Example 328, 4-cyano-N-(8-methyl-1-isoquinolyl)-N-[(3R)-3-piperidyl]-3-[4-(3-pyridyl)phenyl]benzamide]"
